Among the data in ChEMBL document CHEMBL2029311, “Design, synthesis, and evaluation of a novel class of 2,3-disubstituted-tetrahydro-β-carboline derivatives” (2012) are inhibition in vivo values, retold here.

Each structure is given as a SMILES string.

The subject of the first assay is Mus musculus. As to the kind of experiment: Antiinflammatory activity in ICR mouse assessed as inhibition of xylene-induced ear edema at 100 mg/kg, po administered 30 mins before xylene challenge relative to control. In kind it is functional.
On to `CC(=O)Oc1ccccc1C(=O)O` [ASPIRIN], for which the inhibition in vivo at 100 mg/kg is 89.5%.

Another assay concerns Mus musculus. In words: Antiinflammatory activity in ICR mouse assessed as inhibition of xylene-induced ear edema at 10 umol/kg, po administered 30 mins before xylene challenge relative to control. Type of assay: functional.
For the compound `CC(=O)OC[C@H]1O[C@@H](OC(C)=O)[C@H](NC(=O)[C@@H]2Cc3c([nH]c4ccccc34)CN2C(=O)OC(C)(C)C)[C@@H](OC(C)=O)[C@@H]1OC(C)=O`, the inhibition in vivo at 10 µmol/kg came out at 71.2%.
With `CC(=O)OC[C@H]1O[C@@H](OC(C)=O)[C@H](NC(=O)[C@@H]2Cc3c([nH]c4ccccc34)CN2C(=O)[C@H](C)NC(=O)OC(C)(C)C)[C@@H](OC(C)=O)[C@@H]1OC(C)=O`, the inhibition in vivo at 10 µmol/kg was 82%.
The same measure, in the same setting: as for `CC(=O)OC[C@H]1O[C@@H](OC(C)=O)[C@H](NC(=O)[C@@H]2Cc3c([nH]c4ccccc34)CN2C(=O)CNC(=O)OC(C)(C)C)[C@@H](OC(C)=O)[C@@H]1OC(C)=O`, the figure is 58.6%; as for `C[C@H](NC(=O)OC(C)(C)C)C(=O)N1Cc2[nH]c3ccccc3c2C[C@H]1C(=O)N[C@H]1C(O)O[C@H](CO)[C@@H](O)[C@@H]1O` (mixture of isomers), 51.9%; as for `C[C@H](N)C(=O)N1Cc2[nH]c3ccccc3c2C[C@H]1C(=O)N[C@H]1C(O)O[C@H](CO)[C@@H](O)[C@@H]1O` (mixture of isomers), 66%.
